In PubChem BioAssay (NCI) one finds TGI data, which are given here for nine molecules.

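Results reflect a 48-hour exposure of cells in 96-well plates to compound at five concentrations. The concentration for full growth arrest is given as TGI.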 A value given as a limit tells only on which side of the number the result lay.

Holding throughout (test): NCI anticancer screen, dose series, 48 h
The subject of assay [1] is SW-620 colon.
Assay [2] has as its system HCT-15 colon.
The test system of assay [3] is NCI-H522 lung.
Assay [4] relates to UO-31 renal.
Assay [5] deals with SK-MEL-2 melanoma.
Assay [6] relates to SK-OV-3 ovarian.
The subject of assay [7] is HS 578T breast.
For assay [8], the system named is MOLT-4 leukemia.
For assay [9], the system named is NCI/ADR-RES ovarian.
The subject of assay [10] is HOP-92 NSCLC.
Assay [11] deals with NCI-H460 lung.
Assay [12] deals with PC-3 prostate.
Assay [13] relates to HT29 colon.
The test system of assay [14] is RPMI-8226 leukemia.
The test system of assay [15] is SNB-75 CNS.
Assay [16] concerns LOX IMVI melanoma.
The test system of assay [17] is MDA-MB-231 breast.
In assay [18] the test system is COLO 205 colon.
For assay [19], the system named is HL-60(TB) leukemia.

On to `COc1ccc(N2C(=O)CSC2c2cc3cc(Br)ccc3nc2Cl)cc1` (centres undefined), for which the TGI in [1], in [2], in [3], in [4], in assay [5] and in assay [6] was over 50 µM throughout. Besides, the TGI in assay [7], in [8], in assay [9], in assay [10], in assay [11] and in assay [12] was over 50 µM throughout. The TGI in assay [13], in assay [14], in [15], in assay [16], in assay [17] and in assay [18] was over 50 µM throughout. In addition, the TGI in [19] is over 50 µM.

For the molecule `CC1C(=O)C(C)C(c2cccs2)N(N=O)C1c1cccs1` (centres undefined), the TGI in assay [1], in [2], in assay [3], in [4], in [5] and in assay [6] was over 100 µM each time. In addition, the TGI in assay [8], in [9], in [10], in assay [11], in assay [13] and in assay [14] was over 100 µM each time. In addition, the TGI is over 93 µM in [15], over 100 µM in assay [16], over 100 µM in [18] and over 100 µM in [19].

Consider `c1ccc2c(c1)ccc1ncccc12`, for which the TGI in assay [1], in assay [2], in assay [3], in [4], in assay [5] and in assay [7] was over 100 µM in each case. In addition, the TGI in assay [8], in assay [9], in assay [10], in assay [11], in assay [12] and in assay [13] was over 100 µM in each case. The TGI in assay [14], in assay [15], in assay [16], in assay [17], in [18] and in assay [19] was over 100 µM each time.

Take `O=C1ON(Cc2ccccc2)C(c2ccccc2)N1c1ccccc1` (centres undefined): the TGI in assay [1], in assay [2], in [3], in [4], in assay [5] and in assay [6] was over 100 µM in each case. The TGI in assay [8], in assay [9], in assay [10], in assay [11], in assay [13] and in assay [14] was over 100 µM each time. The TGI in [15], in assay [16], in assay [18] and in [19] was over 100 µM each time.

For the molecule `COc1cc2c(c(N)c1OC)C(=O)/C(=C/c1cc(C)c(O)c(C)c1)C2`, the TGI was over 100 µM in assay [1]; over 100 µM in assay [2]; over 100 µM in assay [4]; over 95.4 µM in assay [5]; over 100 µM in assay [6]; over 100 µM in assay [8]. Moreover, the TGI was over 100 µM in [9]; over 100 µM in assay [10]; over 57.8 µM in assay [11]; over 100 µM in assay [12]; over 100 µM in assay [13]; over 100 µM in assay [16]. Further, the values for the TGI in [17] and in assay [18] were over 100 µM and over 52.2 µM, respectively.

As to `CC(C)=CCC/C(C)=C/CC/C(C)=C/CC/C=C(\C)CC/C=C(\C)CCC1SC1(C)C` (centres undefined), the TGI in [1], in assay [2], in assay [3], in assay [4], in [5] and in assay [6] was over 100 µM throughout. In addition, the TGI in assay [8], in [10], in assay [11], in [13], in assay [14] and in assay [15] was over 100 µM in each case. The TGI in assay [16], in [18] and in [19] was over 100 µM throughout.

For `CC(=O)Nc1ccc(C2=N/C(=C\c3ccc(Cl)c(Cl)c3)C(=O)O2)cc1`, the TGI in [1], in assay [2], in assay [3], in [4], in assay [5] and in [6] was over 100 µM in each case. The TGI in assay [8], in [10], in assay [11], in assay [13], in [14] and in assay [15] was over 100 µM throughout. Further, the TGI in assay [16], in assay [18] and in [19] was over 100 µM each time.

Turning to `O=C1NC2OCC(O)C(O1)C2O` (centres undefined), the TGI in [1], in assay [2], in [3], in assay [4], in [5] and in [6] was over 100 µM each time. In addition, the TGI in assay [8], in assay [10], in [11], in assay [13], in assay [14] and in [15] was over 100 µM throughout. Besides, the TGI in assay [16], in assay [18] and in [19] was over 100 µM each time.

Turning to `Cc1ccc(C2(C)NC(=S)N(NC(N)=S)C2=S)cc1` (centres undefined), the TGI in assay [1], in [2], in assay [4], in assay [5], in [8] and in assay [11] was over 100 µM throughout. Also, the TGI in assay [14], in assay [15], in assay [16], in [18] and in assay [19] was over 100 µM in each case.
